According to paper PMC12926254, “Novel pyrazole carboxylate derivatives as lonazolac bioisosteres with selective COX-2 inhibition: design, synthesis and anti-inflammatory activity” (Molecular Diversity, 2025):

Columns and labels:
[1] = target: T1, 15-LOX (Glycine max, UniProt P08170); assay: In vitro 15-LOX inhibition (Lipoxygenase Inhibitor Screening assay Kit 760700, Cayman); type: biochemical; conditions: mean of six values ± standard deviation
T1 construct: purchased Cayman Chemical 760,700
T1 sequence (P08170 1-839): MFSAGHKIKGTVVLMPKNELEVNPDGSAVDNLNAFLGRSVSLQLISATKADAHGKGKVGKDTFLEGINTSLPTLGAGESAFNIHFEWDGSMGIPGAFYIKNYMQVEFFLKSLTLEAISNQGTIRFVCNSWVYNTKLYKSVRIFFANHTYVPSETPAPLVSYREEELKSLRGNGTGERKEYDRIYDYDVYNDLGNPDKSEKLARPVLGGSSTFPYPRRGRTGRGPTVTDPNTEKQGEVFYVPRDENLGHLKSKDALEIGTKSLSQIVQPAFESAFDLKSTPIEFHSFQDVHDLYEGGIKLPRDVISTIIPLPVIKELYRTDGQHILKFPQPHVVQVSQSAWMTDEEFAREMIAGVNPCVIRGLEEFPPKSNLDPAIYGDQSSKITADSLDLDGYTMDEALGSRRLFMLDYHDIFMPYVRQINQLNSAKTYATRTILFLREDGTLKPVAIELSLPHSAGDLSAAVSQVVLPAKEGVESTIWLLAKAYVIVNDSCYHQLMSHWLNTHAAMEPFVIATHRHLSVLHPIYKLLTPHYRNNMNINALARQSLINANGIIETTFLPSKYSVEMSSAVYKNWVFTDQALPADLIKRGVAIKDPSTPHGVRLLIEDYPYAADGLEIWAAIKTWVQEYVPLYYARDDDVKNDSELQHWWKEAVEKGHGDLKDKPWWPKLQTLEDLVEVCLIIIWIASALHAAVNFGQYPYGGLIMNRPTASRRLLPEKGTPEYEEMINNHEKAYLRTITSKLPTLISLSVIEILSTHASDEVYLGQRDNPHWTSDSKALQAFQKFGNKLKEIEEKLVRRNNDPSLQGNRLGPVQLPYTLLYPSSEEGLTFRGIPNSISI
Description: 15-LOX inhibitor screening protocol: Blank wells: 100 µl of assay buffer was added to at least two wells, Positive control wells: 90 µl of 15-LOX standard was added to 10 µl of assay buffer to at least two wells, 100% initial activity wells: 90 µl of Lipoxygenase enzyme was added to 10 µl of solvent to at least two wells, Inhibitor wells: 90 µl of Lipoxygenase enzyme was added to 10 µl of inhibitor wells to. It was incubated for five minutes at room temperature. The reaction was initiated by adding 10 µl of substrate to all the wells. 96well-plates were placed on a shaker for at least 10 min. 100 µl of chromogen was added to each well to stop the enzyme catalysis. The reaction was covered with plate cover. 96well-plates were placed on a shaker for at least 5 min. The cover was removed and absorbance was read using plate reader at absorbance 490–500 nm.

[2] = system: carrageenan-induced rat paw edema; assay: Carrageenan-induced rat paw edema assay; type: in vivo; conditions: for % inhibition (edema) / Paw edema % inhibition / Paw edema thickness ± SEM: 50 mg/kg; for Paw edema % inhibition / Paw edema thickness ± SEM: rat; for ED50: Rattus norvegicus, dose producing 50% edema inhibition
Description: As previously described, paw thickness was evaluated at 1, 3, and 5 h following carrageenan injection at a dose of 50 mg/kg.

[3] = system: PGE2; assay: PGE2 production in LPS-activated RAW 264.7 macrophages (ELISA); conditions: Mus musculus, RAW264.7, read-out: PGE2 IC50
[4] = target: T2, COX-1 (Ovis aries, UniProt P05979); assay: In vitro COX-1 inhibition (COX-1 Inhibitor Screening Kit-K548, Biovision); type: biochemical; conditions: mean of six values ± standard deviation
T2 construct: purchased Biovision K548
T2 sequence (P05979 25-600): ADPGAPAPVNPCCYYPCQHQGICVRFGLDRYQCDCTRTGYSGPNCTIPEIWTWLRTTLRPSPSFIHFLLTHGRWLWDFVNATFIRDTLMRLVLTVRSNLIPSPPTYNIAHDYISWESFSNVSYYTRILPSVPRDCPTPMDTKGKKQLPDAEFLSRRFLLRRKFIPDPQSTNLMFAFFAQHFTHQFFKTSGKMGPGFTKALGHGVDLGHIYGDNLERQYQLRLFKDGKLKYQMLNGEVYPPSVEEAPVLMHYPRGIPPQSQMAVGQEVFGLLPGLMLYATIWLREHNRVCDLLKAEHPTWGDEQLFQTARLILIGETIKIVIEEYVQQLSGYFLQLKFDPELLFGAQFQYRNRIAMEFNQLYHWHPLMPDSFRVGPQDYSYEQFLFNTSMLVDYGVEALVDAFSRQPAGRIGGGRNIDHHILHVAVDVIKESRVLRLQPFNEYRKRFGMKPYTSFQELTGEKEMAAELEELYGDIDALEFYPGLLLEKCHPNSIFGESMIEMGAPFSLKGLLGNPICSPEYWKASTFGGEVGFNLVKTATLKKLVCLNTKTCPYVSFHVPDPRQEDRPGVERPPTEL
Description: The IC50 value of the tested compounds was determined.
COX-1 inhibitor Screening Protocol: Dissolve the tested compounds in DMSO. Use COX assay buffer to dilute the relevant test concentration by 10X before using. Place 10 µl of diluted test inhibitor or assay buffer in the specified wells instead of the sample screen (S) or enzyme control (EC; no inhibitor). To one of the wells, add 2 µl of SC560 and 8 µl of COX Assay Buffer as an inhibitor control (IC). Before using, combine 2 µl of COX Cofactor with 398 µl of COX Assay Buffer to dilute COX cofactor 200 times. Blend thoroughly. Just before using, mix 5 µl of the provided arachidonic acid with 5 µl of NaOH to make the arachidonic acid solution. Combine quickly using a vortex. To dilute the arachidonic acid/NaOH solution 10 times, add 90 µl of water. There should be 80 µl of reaction mix in each well. Using a multi-channel pipette, add 10 µl of diluted arachidonic acid/NaOH solution to each well to initiate all the reactions at once.

Row | IC50 [1] | IC50 [3] | IC50 [4] | SMILES | % inhibition (edema) [2] | Paw edema % inhibition ([2]; 1 h after carrageenan) | Paw edema thickness ± SEM ([2]; 1 h after carrageenan) | Paw edema % inhibition ([2]; 3 h after carrageenan) | Paw edema thickness ± SEM ([2]; 3 h after carrageenan) | Paw edema % inhibition ([2]; 5 h after carrageenan) | Paw edema thickness ± SEM ([2]; 5 h after carrageenan) | ED50 [2]
1 | 488 ± 19 nM | 280 ± 32 nM | 6880 ± 250 nM | CCOC(=O)COc1ccc(C2=NN(c3ccc(S(C)(=O)=O)cc3)C(c3ccc(Br)cc3)C2)cc1 (stereo not drawn) [Compound 15 h, Ethyl 2-(4-(5-(4-bromophenyl)-1-(4-(methylsulfonyl)phenyl)-4,5-dihydro-1H-pyrazol-3-yl)phenoxy)acetate] | 82.28% | 54.85% | 2.57 ± 0.0071 mm | 55.9% | 2.61 ± 0.018 mm | 59.3% | 2.44 ± 0.0099 mm | 29.9 mg/kg
2 | 412 ± 16 nM | 520 ± 29 nM | 11300 ± 450 nM | CCOC(=O)COc1ccc(C2=NN(c3ccc(S(C)(=O)=O)cc3)C(c3ccc(OC)cc3)C2)cc1 (stereo not drawn) [Compound 15c, Ethyl 2-(4-(5-(4-methoxyphenyl)-1-(4-(methylsulfonyl)phenyl)-4,5-dihydro-1H-pyrazol-3-yl)phenoxy)acetate] | 70.02% | 38.3% | 3.1 ± 0.002 mm | 55% | 2.56 ± 0.0034 mm | 66.1% | 2.1 ± 0.0084 mm | 24.1 mg/kg
3 | 2230 ± 87 nM | 330 ± 21 nM | 15500 ± 610 nM | CCOC(=O)COc1ccc(C2=NN(c3ccc(S(C)(=O)=O)cc3)C(c3cc(OC)c(OC)c(OC)c3)C2)cc1 (stereo not drawn) [Compound 15d, Ethyl 2-(4-(1-(4-(methylsulfonyl)phenyl)-5-(3,4,5-trimethoxyphenyl)-4,5-dihydro-1H-pyrazol-3-yl)phenoxy)acetate] | 80.29% | 61.1% | 2.23 ± 0.0045 mm | 41.9% | 2.79 ± 0.011 mm | 40% | 2.90 ± 0.002 mm | 31.2 mg/kg
